Converted amounts (≈) assume the structure as drawn.
How the values were obtained:
Type in all cases: cell-based
[1] = LDH cytotoxic activity assay, HeLa; conditions: human, HeLa cells
Procedure, shortened: (§1)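 LDH release, A492–630 nm; ~5 × 10^3 cells/well, triplicate; cpd 25/50/75/100 μg/mL, 24 h, 37 °C, 5% CO2; DMEM or RPMI 1640 + 10% FBS.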

[2] = LDH cytotoxic activity assay, HT29; conditions: human, HT29 cells; for cytotoxicity at 24 h, 25 μg/mL: HT29, 25 μg/mL; for cytotoxicity at 24 h, 50 μg/mL: HT29, 50 μg/mL; for cytotoxicity at 24 h, 75 μg/mL: HT29, 75 μg/mL; for cytotoxicity at 24 h, 100 μg/mL: HT29, 100 μg/mL
Procedure, shortened: as §1

[3] = in vitro; conditions: human, LC50
Procedure, shortened: (§2)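 Proliferation was measured with the MTT method on cells grown in serum-supplemented DMEM or RPMI 1640 and seeded near 1 × 10^4 per well. Growth parameters GI50, TGI and LC50 were computed from absorbances at time zero, in control growth and under drug.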

[4] = tested on: normal FL cells; assay: cells; conditions: for GI50 / IC50 / IC (total growth inhibition): FL normal cells, MTT; for IC50: read-out: IC50; for IC (total growth inhibition): read-out: TGI
Procedure, shortened: as §2

[5] = LDH cytotoxic activity assay, C6; conditions: rat, C6 glioma cells; for cytotoxicity at 24 h, 25 μg/mL: C6, 25 μg/mL; for cytotoxicity at 24 h, 50 μg/mL: C6, 50 μg/mL; for cytotoxicity at 24 h, 75 μg/mL: C6, 75 μg/mL; for cytotoxicity at 24 h, 100 μg/mL: C6, 100 μg/mL
Procedure, shortened: as §1

[6] = tested on: MCF7; assay: cells; conditions: Homo sapiens; for LC50 (concentration causing 50% net cell loss relative to time zero): MCF7, read-out: LC50; for GI50 / IC50 / IC (total growth inhibition): MCF7, MTT; for IC50: read-out: IC50; for IC (total growth inhibition): read-out: TGI
Procedure, shortened: as §2

[7] = tested on: HeLa; assay: cells; conditions: Homo sapiens; for GI50 / IC50 / IC (total growth inhibition): MTT; for IC50: read-out: IC50; for IC (total growth inhibition): read-out: TGI; for LC50 (concentration causing 50% net cell loss): read-out: LC50
Procedure, shortened: as §2

[8] = tested on: A549; assay: cells; conditions: Homo sapiens; for LC50 (concentration causing 50% net cell loss): A549, read-out: LC50; for GI50 / IC50 / IC (total growth inhibition): A549, MTT; for IC50: read-out: IC50; for IC (total growth inhibition): read-out: TGI
Procedure, shortened: as §2

[9] = tested on: Hep3B; assay: cells; conditions: Homo sapiens; for GI50 / IC50 / IC (total growth inhibition): MTT; for IC50: read-out: IC50; for IC (total growth inhibition): read-out: TGI; for LC50 (concentration causing 50% net cell loss relative to time zero): read-out: LC50
Procedure, shortened: as §2

[10] = tested on: C6 (Rat brain glioma); assay: cells; conditions: Rattus norvegicus; for LC50 (concentration giving 50% net cell loss relative to time zero): read-out: LC50; for GI50 / IC50 / IC (total growth inhibition): C6, MTT; for IC50: read-out: IC50; for IC (total growth inhibition): read-out: TGI
Procedure, shortened: as §2

[11] = tested on: HT29; assay: cells; conditions: Homo sapiens; for LC50 (concentration giving 50% net cell loss relative to time zero): HT-29, read-out: LC50; for GI50 / IC50 / IC (total growth inhibition): HT-29, HT29, MTT; for IC50: read-out: IC50; for IC (total growth inhibition): read-out: TGI
Procedure, shortened: as §2

[12] = tested on: E. coli ATCC 25922; assay: Microdilution MIC assay; conditions: Escherichia coli, ATCC25922; E. coli ATCC 25922, 24 h at 35 °C
Procedure, shortened: (§3)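 MICs come from a microwell dilution format incubated for 24 h at 35 °C, with the endpoint being the lowest concentration that prevented visible growth.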

[13] = tested on: S. aureus ATCC 25923; assay: Microdilution MIC assay; conditions: Staphylococcus aureus, ATCC25923, 24 h, S. aureus ATCC 25923, 24 h at 35 °C; read-out: MIC
Procedure, shortened: as §3

[14] = tested on: E. coli ESBL ATCC 35218; assay: Microdilution MIC assay; conditions: Escherichia coli, ATCC35218; E. coli ESBL ATCC 35218, 24 h at 35 °C
Procedure, shortened: as §3

[15] = tested on: S. aureus MRSA ATCC 46300; assay: Microdilution MIC assay; conditions: Staphylococcus aureus; S. aureus MRSA ATCC 46300, 24 h at 35 °C; read-out: MIC
Procedure, shortened: as §3

[16] = tested on: E. faecalis VRE ATCC 19433; assay: Microdilution MIC assay; conditions: Enterococcus faecalis; E. faecalis VRE ATCC 19433, 24 h at 35 °C
Procedure, shortened: as §3

[17] = tested on: S. gordonii NCTC 7870; assay: Microdilution MIC assay; conditions: Streptococcus gordonii, NCTC7870; S. gordonii NCTC 7870, 24 h at 35 °C
Procedure, shortened: as §3

## CC(=O)OC[C@H]1O[C@@H](Nc2nc(-c3ccccn3)cc(-c3ccccc3C)n2)[C@H](OC(C)=O)[C@@H](OC(C)=O)[C@@H]1OC(C)=O [Compound 10, 2,3,4,6-tetra-O-acetyl-N-[4-(2-methylphenyl)-6-pyridin-2-ylpyrimidin-2-yl]-β-D-glucopyranosylamine]
[1]
  cytotoxicity at 24 h, 25 μg/mL: 16.8%
  cytotoxicity at 24 h, 50 μg/mL: 40.7%
  cytotoxicity at 24 h, 75 μg/mL: 51.7%
  cytotoxicity at 24 h, 100 μg/mL: 58.4%
[2]
  cytotoxicity at 24 h, 25 μg/mL: 29.4%
  cytotoxicity at 24 h, 50 μg/mL: 51.8%
  cytotoxicity at 24 h, 75 μg/mL: 64.5%
  cytotoxicity at 24 h, 100 μg/mL: 95.2%
[3]
  LC50 (concentration causing 50% net cell loss): > 500 µg/mL
[4]
  GI50: 22.8 µg/mL (≈ 38.4 µM)
  IC50: > 500 µg/mL
  IC (total growth inhibition): > 500 µg/mL
[5]
  cytotoxicity at 24 h, 25 μg/mL: 22.8%
  cytotoxicity at 24 h, 50 μg/mL: 54.3%
  cytotoxicity at 24 h, 75 μg/mL: 77.1%
  cytotoxicity at 24 h, 100 μg/mL: 93.5%
[6]
  LC50 (concentration causing 50% net cell loss relative to time zero): > 500 µg/mL
  GI50: 1.66 µg/mL (≈ 2.8 µM)
  IC50: > 500 µg/mL
  IC (total growth inhibition): > 500 µg/mL
[7]
  GI50: > 500 µg/mL
  IC50: > 500 µg/mL
  IC (total growth inhibition): > 500 µg/mL
  LC50 (concentration causing 50% net cell loss): > 500 µg/mL
[8]
  LC50 (concentration causing 50% net cell loss): > 500 µg/mL
  GI50: > 500 µg/mL
  IC50: > 500 µg/mL
  IC (total growth inhibition): > 500 µg/mL
[9]
  GI50: 7.53 µg/mL (≈ 12.7 µM)
  IC50: > 500 µg/mL
  IC (total growth inhibition): > 500 µg/mL
  LC50 (concentration causing 50% net cell loss relative to time zero): > 500 µg/mL
[10]
  LC50 (concentration giving 50% net cell loss relative to time zero): 486 µg/mL (≈ 820 µM)
  GI50: 2.21 µg/mL (≈ 3.73 µM)
  IC50: 21.9 µg/mL (≈ 36.9 µM)
  IC (total growth inhibition): 9.19 µg/mL
[11]
  LC50 (concentration giving 50% net cell loss relative to time zero): > 500 µg/mL
  GI50: 2.1 µg/mL (≈ 3.54 µM)
  IC50: 71.1 µg/mL (≈ 120 µM)
  IC (total growth inhibition): > 500 µg/mL
[12]
  MIC: > 1000 µg/mL
[13]
  MIC: > 1000 µg/mL
[14]
  MIC: > 1000 µg/mL
[15]
  MIC: 1000 µg/mL (≈ 1690 µM)
[16]
  MIC: 125 µg/mL (≈ 211 µM)
[17]
  MIC: > 1000 µg/mL

## CC(=O)OC[C@H]1O[C@@H](Nc2nc(-c3ccncc3)cc(-c3ccc(C)cc3)n2)[C@H](OC(C)=O)[C@@H](OC(C)=O)[C@@H]1OC(C)=O [Compound 18, 2,3,4,6-tetra-O-acetyl-N-[4-(4-methylphenyl)-6-pyridin-4-ylpyrimidin-2-yl]-β-D-glucopyranosylamine]
[1]
  cytotoxicity at 24 h, 25 μg/mL: 14.2%
  cytotoxicity at 24 h, 50 μg/mL: 39%
  cytotoxicity at 24 h, 75 μg/mL: 46.1%
  cytotoxicity at 24 h, 100 μg/mL: 54.2%
[2]
  cytotoxicity at 24 h, 25 μg/mL: 27.9%
  cytotoxicity at 24 h, 50 μg/mL: 45.5%
  cytotoxicity at 24 h, 75 μg/mL: 58.1%
  cytotoxicity at 24 h, 100 μg/mL: 82.8%
[3]
  LC50 (concentration causing 50% net cell loss): > 500 µg/mL
[4]
  GI50: 2.01 µg/mL (≈ 3.39 µM)
  IC50: 7.46 µg/mL (≈ 12.6 µM)
  IC (total growth inhibition): 7.58 µg/mL
[4]; human
  LC50: 352.27 µg/mL (≈ 594 µM)
[5]
  cytotoxicity at 24 h, 25 μg/mL: 27.2%
  cytotoxicity at 24 h, 50 μg/mL: 44.1%
  cytotoxicity at 24 h, 75 μg/mL: 75.2%
  cytotoxicity at 24 h, 100 μg/mL: 86.5%
[6]
  LC50 (concentration causing 50% net cell loss relative to time zero): > 500 µg/mL
  GI50: 1.79 µg/mL (≈ 3.02 µM)
  IC50: > 500 µg/mL
  IC (total growth inhibition): > 500 µg/mL
[7]
  GI50: 1.03 µg/mL (≈ 1.74 µM)
  IC50: 2.29 µg/mL (≈ 3.86 µM)
  IC (total growth inhibition): 1.29 µg/mL
  LC50 (concentration causing 50% net cell loss): 7.4 µg/mL (≈ 12.5 µM)
[8]
  LC50 (concentration causing 50% net cell loss): > 500 µg/mL
  GI50: 15.5 µg/mL (≈ 26.2 µM)
  IC50: > 500 µg/mL
  IC (total growth inhibition): > 500 µg/mL
[9]
  GI50: 6.15 µg/mL (≈ 10.4 µM)
  IC50: > 500 µg/mL
  IC (total growth inhibition): > 500 µg/mL
  LC50 (concentration causing 50% net cell loss relative to time zero): > 500 µg/mL
[10]
  LC50 (concentration giving 50% net cell loss relative to time zero): 29.8 µg/mL (≈ 50.2 µM)
  GI50: 2.23 µg/mL (≈ 3.76 µM)
  IC50: 30.1 µg/mL (≈ 50.9 µM)
  IC (total growth inhibition): 5.21 µg/mL
[11]
  LC50 (concentration giving 50% net cell loss relative to time zero): > 500 µg/mL
  GI50: 7.77 µg/mL (≈ 13.1 µM)
  IC50: > 500 µg/mL
  IC (total growth inhibition): > 500 µg/mL
[12]
  MIC: > 1000 µg/mL
[13]
  MIC: 500 µg/mL (≈ 844 µM)
[14]
  MIC: > 1000 µg/mL
[15]
  MIC: 500 µg/mL (≈ 844 µM)
[16]
  MIC: 1000 µg/mL (≈ 1690 µM)
[17]
  MIC: > 1000 µg/mL

Reference: paper PMC10387993, “New pyrimidine-N-β-D-glucosides: synthesis, biological evaluation, and molecular docking investigations” (Turkish Journal of Chemistry, 2023)
